From patent US5804554A, “Calcium channel blocking polypeptides from filistata hibernalis” (priority 1995, dated 1998) come the findings set out here.

The subject of this assay is calcium channels. The settings on record: read-out: IC50 values for blocking calcium channels; rat cerebellar granule cells, fura2 fluorescence, 37° C.

For `COc1ccc(CCN(C)CCCC(C#N)(c2ccc(OC)c(OC)c2)C(C)C)cc1OC` (stereo not shown) [Verapamil], the 50% inhibitory concentration (IC50) came to 4.8 µM.
